One data set concerns the target KRAS-G12V/RAF1 (Homo sapiens (Human), UniProt P01116, G12V). Kind of data set: KRAS/RAF1 binding inhibition assay (AlphaScreen). In short, it runs like this:
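IC50 comes from variable-slope nonlinear fits of % inhibition (relative to DMSO) against inhibitor concentration. The AlphaScreen signal tracks the interaction of GppNHp-bound KRAS G12V with the RAF1 RBD after 60 min at 4° C with compound in 2% DMSO final.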

In the next data set the target is KRAS G12V (Homo sapiens (Human), UniProt P01116, G12V). Kind of data set: KRAS G12V degradation in SW620 cells (Western blot, DC50). Type of data set: cell-based. The following applies: 24 hours. In a few lines:
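KRAS levels were quantified by fluorescent Western blot as percent of the DMSO control after 24 h of compound exposure at 37° C in homozygous KRAS G12V SW620 cells. A four-parameter variable-slope fit of the dose-response gave the half-maximal degradation concentration.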
(A western blot detects proteins with antibodies after separation by electrophoresis.)

The test system of a further data set is SW620 cells. Kind of data set: 3D cell growth inhibition of SW620 cells carrying endogenous KRAS G12V mutation (CellTiter-Glo 3D, GI50). The format is cell-based. The following applies: Homo sapiens, SW-620, 144 h, read-out: SW620 3D cell growth GI50. In a few lines: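 […], compound exposure lasted 6 days at 37° C, added the day after plating from DMSO stocks over a concentration range. Cells: SW620, KRAS G12V, 3D culture.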
A general note: ATP-based viability assays read luminescence as a measure of living cells.

The nature of data set [1]: Pharmacokinetics following single intravenous and oral gavage dosing (AUC0-24h). Type of data set: in vivo. The settings on record: mouse, plasma; single oral dose 30 mg/Kg, male CD-1 mice. As for the experimental part: Compounds disclosed herein were studied for animal tolerability and pharmacokinetics following single intravenous (iv) and oral gavage (po) dosing to male CD-1 mice. For each compound in each dosing route, 3 mice were used with iv dosing volume of 5 mL/kg and po dosing volume of 10 mL/kg. The compounds were formulated in 10% DMSO, 30% PEG400, 60% aqueous solution containing 20% 2-hydroxypropyl-β-cyclodextrin. Blood sampling time points for iv dosing were 0.083, 0.25, 0.5, 1, 2, 4, 8 and 24 h. The sampling time points for po dosing were 0.25, 0.5, 1, 2, 4, 6, 8 and 24 h. Mice activities were monitored and recorded immediately following the dosing. The prepared plasma samples were analyzed using LC/MS/MS on AB Sciex Triple Quad 5500+ system. The PK parameters were determined by non-compartmental analysis using WinNonlin (Version 8.0).

This is an account of results in US20250092039A1, “GLUTARIMIDE-CONTAINING PAN-KRAS-MUTANT DEGRADER COMPOUNDS AND USES THEREOF” (Tiger Biotherapeutics Inc., priority 2022, published 2025).

Each structure is given as a SMILES string. Where two headings read alike, the source gives them in different places. Some results are limits rather than exact numbers.

Sequence of KRAS-G12V/RAF1 (P01116-2 other isoform, or with tags, fused parts or gaps G12V): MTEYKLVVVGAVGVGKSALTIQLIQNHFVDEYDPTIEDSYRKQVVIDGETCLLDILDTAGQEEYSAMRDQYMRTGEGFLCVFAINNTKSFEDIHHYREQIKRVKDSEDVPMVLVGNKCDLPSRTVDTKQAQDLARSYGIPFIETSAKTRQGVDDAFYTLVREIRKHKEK
Sequence of KRAS G12V (P01116-2 other isoform, or with tags, fused parts or gaps G12V): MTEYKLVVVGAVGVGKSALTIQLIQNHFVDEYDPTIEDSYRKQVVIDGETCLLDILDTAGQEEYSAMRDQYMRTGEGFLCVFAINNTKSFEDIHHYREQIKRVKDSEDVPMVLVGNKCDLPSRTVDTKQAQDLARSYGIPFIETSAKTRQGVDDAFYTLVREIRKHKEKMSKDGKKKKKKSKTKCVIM

As a reminder, the IC50 is the concentration at which inhibition is half-maximal. Lower therefore signals greater potency in that assay. For orientation: DC50 means the midpoint of the concentration-degradation curve. The low end stands for degradation at low concentration, the high end for degradation only at high concentration. The term GI50 denotes the concentration giving 50% growth inhibition. One may read the AUC(0-t) as exposure summed from dosing to a finite time, without extrapolation to infinity. The compound `CCc1c(F)ccc2cc(O)cc(-c3ncc4c(N5CCCC6(CCO6)C5)nc(OCC5(CN6CCC(F)(CN7CCN(c8ccc9c(c8)CN([C@H]8CCC(=O)NC8=O)C9=O)CC7)CC6)CC5)nc4c3F)c12` (stereo partly drawn) [Compound 41, (3S)-3-(5-(4-((1-((1-(((7-(8-ethyl-7-fluoro-3-hydroxynaphthalen-1-yl)-8-fluoro-4-(1-oxa-6-azaspiro[3.5]nonan-6-yl)pyrido[4,3-d]pyrimidin-2-yl)oxy)methyl)cyclopropyl)methyl)-4-fluoropiperidin-4-yl)methyl)piperazin-1-yl)-1-oxoisoindolin-2-yl)piperidine-2,6-dione] came in with an IC50 on KRAS-G12V/RAF1 of 20 to 200 nM. For the same compound, the DC50 on KRAS G12V lay in the range of 1 to 10 nM. Besides, in the data set with SW620 cells (SW620 cells, 6 days), the GI50 was under 10 nM. In data set [1], the AUC(0-t) turned out to be 1850 ng·h/mL.
The corresponding values for `CCc1c(F)ccc2cc(O)cc(-c3ncc4c(N5CCC[C@]6(CCO6)C5)nc(OCC5(CN6CCC(F)(CN7CCN(c8ccc9c(c8)CN([C@H]8CCC(=O)NC8=O)C9=O)CC7)CC6)CC5)nc4c3F)c12` [Compound 86, (S)-3-(5-(4-((1-((1-(((7-(8-ethyl-7-fluoro-3-hydroxynaphthalen-1-yl)-8-fluoro-4-((S)-1-oxa-6-azaspiro[3.5]nonan-6-yl)pyrido[4,3-d]pyrimidin-2-yl)oxy)methyl)cyclopropyl)methyl)-4-fluoropiperidin-4-yl)methyl)piperazin-1-yl)-1-oxoisoindolin-2-yl)piperidine-2,6-dione] are 20 to 200 nM, under 1 nM, under 10 nM and 1320 ng·h/mL.
In the case of `CCc1c(F)ccc2cc(O)cc(-c3ncc4c(N5CCC[C@@](C)(O)C5)nc(OCC5(CN6CC(F)(CN7CC8(CCN(c9ccc%10c(c9)CN([C@H]9CCC(=O)NC9=O)C%10=O)CC8)C7)C6)CC5)nc4c3F)c12` [Compound 68, (S)-3-(5-(2-((1-((1-(((7-(8-ethyl-7-fluoro-3-hydroxynaphthalen-1-yl)-8-fluoro-4-((R)-3-hydroxy-3-methylpiperidin-1-yl)pyrido[4,3-d]pyrimidin-2-yl)oxy)methyl)cyclopropyl)methyl)-3-fluoroazetidin-3-yl)methyl)-2,7-diazaspiro[3.5]nonan-7-yl)-1-oxoisoindolin-2-yl)piperidine-2,6-dione], on KRAS-G12V/RAF1, the IC50 is over 200 nM. The compound also displayed a 50% degradation concentration (DC50) on KRAS G12V of 1 to 10 nM. Further, the GI50 in the data set on SW620 cells (SW620 cells, 6 days) was under 10 nM. In data set [1], this compound gave an AUC(0-t) of 901 ng·h/mL.
In the same order, the values of `CCc1c(F)ccc2cc(O)cc(-c3ncc4c(N5CCC[C@@](C)(O)C5)nc(OCC5(CN6CCC7(CC6)CC(CN6CCN(c8cc(F)c(C9CCC(=O)NC9=O)c(F)c8)CC6)C7)CC5)nc4c3F)c12` (stereo partly drawn) [Compound 49, 3-(4-(4-((7-((1-(((7-(8-ethyl-7-fluoro-3-hydroxynaphthalen-1-yl)-8-fluoro-4-((R)-3-hydroxy-3-methylpiperidin-1-yl)pyrido[4,3-d]pyrimidin-2-yl)oxy)methyl)cyclopropyl)methyl)-7-azaspiro[3.5]nonan-2-yl)methyl)piperazin-1-yl)-2,6-difluorophenyl)piperidine-2,6-dione] are 20 to 200 nM, under 1 nM, under 10 nM and 3170 ng·h/mL.
The corresponding values for `CCc1c(F)ccc2cc(O)cc(-c3ncc4c(N5CCC[C@@](C)(O)C5)nc(OCC5(CN6CCC(OC7CCC8(CC7)CN(c7ccc9c(c7)CN(C7CCC(=O)NC7=O)C9=O)C8)CC6)CC5)nc4c3F)c12` (stereo partly drawn) [Compound 184, 3-[5-[7-[[1-[[1-[[7-(8-ethyl-7-fluoro-3-hydroxy-1-naphthyl)-8-fluoro-4-[(3R)-3-hydroxy-3-methyl-1-piperidyl]pyrido[4,3-d]pyrimidin-2-yl]oxymethyl]cyclopropyl]methyl]-4-piperidyl]oxy]-2-azaspiro[3.5]nonan-2-yl]-1-oxo-isoindolin-2-yl]piperidine-2,6-dione] are over 200 nM, under 1 nM, under 10 nM and 12500 ng·h/mL.
`CCc1c(F)ccc2cc(O)cc(-c3ncc4c(N5CCC[C@@](C)(O)C5)nc(OCC5(CN6CCC7(CCC(N8CCN(c9cc(F)c(C%10CCC(=O)NC%10=O)c(F)c9)CC8)CC7)CC6)CC5)nc4c3F)c12` (stereo partly drawn) [Compound 51, 3-{4-[4-(3-{[1-({[7-(8-ethyl-7-fluoro-3-hydroxynaphthalen-1-yl)-8-fluoro-4-[(3R)-3-hydroxy-3-methylpiperidin-1-yl]pyrido[4,3-d]pyrimidin-2-yl]oxy}methyl)cyclopropyl]methyl}-3-azaspiro[5.5]undecan-9-yl)piperazin-1-yl]-2,6-difluorophenyl}piperidine-2,6-dione] displayed an IC50 on KRAS-G12V/RAF1 of 20 to 200 nM. On KRAS G12V, the DC50 was 1 to 10 nM. In the data set on SW620 cells, the GI50 was under 10 nM. Further, in data set [1], the area under the curve AUC(0-t) was 2280 ng·h/mL.
Turning to `CCc1c(F)ccc2cc(O)cc(-c3ncc4c(N5CCC[C@@](C)(O)C5)nc(OCC5(CN6CCC(C)(CN7CC8(CCN(c9ccc%10c(c9)CN([C@H]9CCC(=O)NC9=O)C%10=O)CC8)C7)CC6)CC5)nc4c3F)c12` [Compound 40, (3S)-3-(5-(2-[(1-{[1-({[7-(8-ethyl-7-fluoro-3-hydroxynaphthalen-1-yl)-8-fluoro-4-[(3R)-3-hydroxy-3-methylpiperidin-1-yl]pyrido[4,3-d]pyrimidin-2-yl]oxy}methyl)cyclopropyl]methyl}-4-methylpiperidin-4-yl)methyl]-2,7-diazaspiro[3.5]nonan-7-yl}-1-oxo-3H-isoindol-2-yl)piperidine-2,6-dione], the concentration for half-maximal inhibition (IC50) at KRAS-G12V/RAF1 was under 20 nM. For the same compound, the DC50 at KRAS G12V was under 1 nM. In addition, in the data set with SW620 cells (SW620 cells, 6 days), the GI50 is under 10 nM. This compound also came in with an exposure AUC(0-t) in data set [1] of 652 ng·h/mL.
In the same order, the values of `CCc1c(F)ccc2cc(O)cc(-c3ncc4c(N5CCC[C@@](C)(O)C5)nc(OCC5(CN6CC7(CCC(N8CCN(c9cc(F)c(C%10CCC(=O)NC%10=O)c(F)c9)CC8)CC7)C6)CC5)nc4c3F)c12` (stereo partly drawn) [Compound 60, 3-(4-(4-(2-((1-(((7-(8-ethyl-7-fluoro-3-hydroxynaphthalen-1-yl)-8-fluoro-4-((R)-3-hydroxy-3-methylpiperidin-1-yl)pyrido[4,3-d]pyrimidin-2-yl)oxy)methyl)cyclopropyl)methyl)-2-azaspiro[3.5]nonan-7-yl)piperazin-1-yl)-2,6-difluorophenyl)piperidine-2,6-dione] are 20 to 200 nM, under 1 nM, under 10 nM and 1780 ng·h/mL.
The corresponding values for `CCc1c(F)ccc2cc(O)cc(-c3ncc4c(N5CCC[C@@](C)(O)C5)nc(OCC5(CN6CCC(C)(CN7CCN(C8CCN(c9ccc%10c(c9)CN(C9CCC(=O)NC9=O)C%10=O)CC8)CC7)CC6)CC5)nc4c3F)c12` (stereo partly drawn) [Compound 39, 3-(5-(4-(4-((1-((1-(((7-(8-ethyl-7-fluoro-3-hydroxynaphthalen-1-yl)-8-fluoro-4-((R)-3-hydroxy-3-methylpiperidin-1-yl)pyrido[4,3-d]pyrimidin-2-yl)oxy)methyl)cyclopropyl)methyl)-4-methylpiperidin-4-yl)methyl)piperazin-1-yl)piperidin-1-yl)-1-oxoisoindolin-2-yl)piperidine-2.6-dione] are under 20 nM, under 1 nM, under 10 nM and 399 ng·h/mL.
